Like-named read-outs stand apart in the source and are kept apart here.
Assays:
[1] = system: HTT mRNA; assay: Splicing RT-qPCR assay, HTT canonical (CJ) and alternative (AJ) junction mRNA; assay type: cell-based, human; conditions: Homo sapiens, A673 or K562 cells, 24 hours compound treatment; for IC50: 24 h, read-out: HTT CJ (IC50, decrease in canonical junction mRNA); for AC50: read-out: HTT AJ (AC50, increase in alternative junction mRNA)
Method in brief: (§1)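 A673 or K562 cells were treated 24 h at 37 °C with an 11-point 3-fold compound dilution series (top 10 uM, DMSO ≤0.25%). Lysates went to one-step RT-qPCR measuring canonical (CJ) and alternative-exon (AJ) junction transcripts, normalized to GAPDH, GUSB or PPIA.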

[2] = system: MYB mRNA; assay: Splicing RT-qPCR assay, MYB canonical (CJ) and alternative (AJ) junction mRNA; assay type: cell-based, human; conditions: A673 or K562 cells, 24 hours compound treatment, RT-qPCR; for AC50: read-out: MYB AJ (AC50, increase in alternative junction mRNA); for IC50: read-out: MYB CJ (IC50, decrease in canonical junction mRNA)
Method in brief: as §1

IC50 [1] [µM]	IC50 ([2]; Homo sapiens, 24 h) [nM]	IC50 [2] [nM]	Structure (SMILES)	AC50 [1] [µM]	AC50 ([2]; Homo sapiens, 24 h) [nM]	AC50 [2] [nM]
> 10	1000 to 10000	–	CCn1cc2c(N3CCC(C)(N)C3)ccc(C(=O)Nc3cc(F)c4nc(C)cn4c3)c2n1 (centres unmarked) [Compound 539, 4-(3-amino-3-methylpyrrolidin-1-yl)-2-ethyl-N-{8-fluoro-2-methylimidazo[1,2-a]pyridin-6-yl}indazole-7-carboxamide]	> 10	1000 to 10000	–
> 10	> 10000	–	Cn1cc2c(N3CCNCC3)ccc(C(=O)Nc3ccc4c(c3)oc(=O)n4C)c2n1 [Compound 499, 2-methyl-N-(3-methyl-2-oxo-2,3-dihydrobenzo[d]oxazol-6-yl)-4-(piperazin-1-yl)-2H-indazole-7-carboxamide]	> 10	> 10000	–
> 10	100 to 1000	–	CCn1cc2c(N3CC[C@@H](NC)C3)cc(O)c(C(=O)Nc3cc(F)c4nc(C)cn4c3)c2n1 [Compound 635]	> 10	1000 to 10000	–
1 to 10	100 to 1000	–	CCn1cc2c(N3CCC(NC4C5COCC54)CC3)ccc(C(=O)Nc3cc(F)c4nc(C)cn4c3)c2n1 (centres unmarked) [Compound 581, 2-ethyl-N-{8-fluoro-2-methylimidazo[1,2-a]pyridin-6-yl}-4-(4-{3-oxabicyclo[3.1.0]hexan-6-ylamino}piperidin-1-yl) indazole-7-carboxamide]	1 to 10	100 to 1000	–
> 10	100 to 1000	–	CCn1cc2c(N3CCC(NC4C5CNCC54)CC3)ccc(C(=O)Nc3cc(F)c4nc(C)cn4c3)c2n1 (centres unmarked) [Compound 580, 4-(4-{3-azabicyclo[3.1.0]hexan-6-ylamino}piperidin-1-yl)-2-ethyl-N-{8-fluoro-2-methylimidazo[1,2-a]pyridin-6-yl}indazole-7-carboxamide; bis(trifluoroacetic acid)]	> 10	1000 to 10000	–
1 to 10	100 to 1000	–	CCn1cc2c([C@@]34CCNCC3C4)ccc(C(=O)Nc3cc(F)c4nc(C)cn4c3)c2n1 (some centres unmarked) [Compound 513]	> 10	100 to 1000	–
1 to 10	< 100	–	CCN[C@@H]1CCN(c2ccc(C(=O)Nc3cc(F)c4nc(C)cn4c3)c3nn(C)cc23)C1 [Compound 520, 4-[(3R)-3-(ethylamino)pyrrolidin-1-yl]-N-{8-fluoro-2-methylimidazo[1,2-a]pyridin-6-yl}-2-methylindazole-7-carboxamide]	1 to 10	< 100	–
0.1 to 1	< 100	–	CCn1cc2c(N3CCN(C)CC3)cc(F)c(C(=O)Nc3cc(F)c4nc(C)cn4c3)c2n1 [Compound 481, 2-ethyl-6-fluoro-N-{8-fluoro-2-methylimidazo[1,2-a]pyridin-6-yl}-4-(4-methylpiperazin-1-yl) indazole-7-carboxamide]	1 to 10	100 to 1000	–
> 10	1000 to 10000	–	CCn1cc2c(N3CCNCC3)ccc(C(=O)Nc3cn4cc(C)nc4c(Cl)n3)c2n1 [Compound 604, N-{8-chloro-2-methylimidazo[1,2-a]pyrazin-6-yl}-2-ethyl-4-(piperazin-1-yl) indazole-7-carboxamide]	> 10	1000 to 10000	–
> 10	100 to 1000	–	CCn1cc2c(N3CCN[C@@H](C4CC4)C3)ccc(C(=O)Nc3cc(F)c4nc(C)cn4c3)c2n1 [Compound 541, 4-[(3S)-3-cyclopropylpiperazin-1-yl]-2-ethyl-N-{8-fluoro-2-methylimidazo[1,2-a]pyridin-6-yl}indazole-7-carboxamide]	> 10	100 to 1000	–
> 10	> 10000	–	Cc1cn2cc(NC(=O)c3ccc(N4CCc5[nH]ccc5C4)c4cn(C)nc34)cc(F)c2n1 [Compound 390, N-{8-fluoro-2-methylimidazo[1,2-a]pyridin-6-yl}-2-methyl-4-{1H,4H,6H,7H-pyrrolo[3,2-c]pyridin-5-yl}indazole-7-carboxamide]	> 10	> 10000	–
> 10	–	100 to 1000	CCn1cc2c(N3CC[C@@H](NC)C3)ccc(C(=O)Nc3cc(F)c4nc(C)cn4c3)c2n1 [Compound 393, (R)-2-ethyl-N-(8-fluoro-2-methylimidazo[1,2-a]pyridin-6-yl)-4-(3-(methylamino)pyrrolidin-1-yl)-2H-indazole-7-carboxamide]	> 10	–	100 to 1000
1 to 10	100 to 1000	–	CCn1cc2c(OC3CCNCC3)ccc(C(=O)Nc3cc(F)c4nc(C)cn4c3)c2n1 [Compound 505, 2-ethyl-N-{8-fluoro-2-methylimidazo[1,2-a]pyridin-6-yl}-4-(piperidin-4-yloxy) indazole-7-carboxamide]	1 to 10	100 to 1000	–
> 10	1000 to 10000	–	Cc1nc2c(F)cc(NC(=O)c3ccc(N4CCNCC4)c4cn(C)nc34)cc2[nH]1 [Compound 509]	> 10	1000 to 10000	–
> 10	> 10000	–	CCn1cc2c(N3CC[C@@](C)(NC)C3)ccc(C(=O)Nc3cc(F)c4nc(C)cn4c3)c2n1 [Compound 547, 2-ethyl-N-{8-fluoro-2-methylimidazo[1,2-a]pyridin-6-yl}-4-[(3R)-3-methyl-3-(methylamino)pyrrolidin-1-yl]indazole-7-carboxamide]	> 10	> 10000	–
1 to 10	100 to 1000	–	CCn1cc2c(N3CC4(CCNCC4)C3)ccc(C(=O)Nc3cc(F)c4nc(C)cn4c3)c2n1 [Compound 492, 4-{2,7-diazaspiro[3.5]nonan-2-yl}-2-ethyl-N-{8-fluoro-2-methylimidazo[1,2-a]pyridin-6-yl}indazole-7-carboxamide]	> 10	1000 to 10000	–
0.1 to 1	100 to 1000	–	CCn1cc2c(N3CCC(NCC(C)(C)O)CC3)ccc(C(=O)Nc3cc(F)c4nc(C)cn4c3)c2n1 [Compound 577, 2-ethyl-N-{8-fluoro-2-methylimidazo[1,2-a]pyridin-6-yl}-4-{4-[(2-hydroxy-2-methylpropyl)amino]piperidin-1-yl}indazole-7-carboxamide]	0.1 to 1	100 to 1000	–
1 to 10	< 100	–	Cc1cn2cc(NC(=O)c3ccc(N4CC[C@@H](NC5CCC5)C4)c4cn(C)nc34)cc(F)c2n1 [Compound 533, (R)-4-(3-(cyclobutylamino)pyrrolidin-1-yl)-N-(8-fluoro-2-methylimidazo[1,2-a]pyridin-6-yl)-2-methyl-2H-indazole-7-carboxamide]	1 to 10	< 100	–
> 10	< 100	–	CCNC1CCN(c2ccc(C(=O)Nc3cc(F)c4nc(C)cn4c3)c3nn(CC)cc23)C1 (stereo in doubt) [Compound 400, (R)-2-ethyl-4-(3-(ethylamino)pyrrolidin-1-yl)-N-(8-fluoro-2-methylimidazo[1,2-a]pyridin-6-yl)-2H-indazole-7-carboxamide]	> 10	< 100	–
0.1 to 1	100 to 1000	–	CCn1cc2c(N3CCNCC3)ccc(C(=O)Nc3cc(F)c4nc(CO)oc4c3)c2n1 [Compound 582, 2-ethyl-N-[4-fluoro-2-(hydroxymethyl)-1,3-benzoxazol-6-yl]-4-(piperazin-1-yl) indazole-7-carboxamide]	0.1 to 1	100 to 1000	–
1 to 10	100 to 1000	–	Cc1cn2cc(NC(=O)c3ccc(N4CC[C@@H](NC5CC5(C)C)C4)c4cn(C)nc34)cc(F)c2n1 (some centres unmarked) [Compound 645]	> 10	100 to 1000	–
1 to 10	100 to 1000	–	CCn1cc2c(N3CCC(NC4CC4)CC3)cc(Cl)c(C(=O)Nc3cc(F)c4nc(C)cn4c3)c2n1 [Compound 627]	1 to 10	100 to 1000	–
1 to 10	100 to 1000	–	Cc1cn2cc(NC(=O)c3ccc(N4CC[C@@H](NC5COC5)C4)c4cn(C)nc34)cc(F)c2n1 [Compound 531, N-{8-fluoro-2-methylimidazo[1,2-a]pyridin-6-yl}-2-methyl-4-[(3R)-3-(oxetan-3-ylamino)pyrrolidin-1-yl]indazole-7-carboxamide]	1 to 10	1000 to 10000	–
1 to 10	< 100	–	Cc1cn2cc(NC(=O)c3ccc(N4CC[C@@H](NC5(C)CC5)C4)c4cn(C)nc34)cc(F)c2n1 [Compound 598]	1 to 10	100 to 1000	–
1 to 10	< 100	–	CCC(=O)CN[C@@H]1CCN(c2ccc(C(=O)Nc3cc(F)c4nc(C)cn4c3)c3nn(C)cc23)C1 [Compound 641]	1 to 10	< 100	–
> 10	> 10000	–	CCNC1CCN(c2ccc(C/N=C3\C=C(F)c4nc(C)cn4C3)c3nn(C)cc23)CC1 [Compound 500, N-ethyl-1-[7-({[(6E)-8-fluoro-2-methyl-5H-imidazo[1,2-a]pyridin-6-ylidene]amino}methyl)-2-methylindazol-4-yl]piperidin-4-amine]	> 10	> 10000	–

— US20250154169A1, “COMPOUNDS AND METHODS FOR MODULATING SPLICING” (REMIX THERAPEUTICS INC., priority 2021, published 2025)
